Data reported in patent publication US6930088B2, “Conformationally constrained backbone cyclized somatostatin analogs” (Peptor Ltd., priority 1998, dated 2005).
Like-named read-outs stand apart in the source and are kept apart here. *1 amine or outer side, *2 acyl side, *3 side chain or, on linkers, in order; H or OH if unused. Where a SMILES comes first, the peptide text is derived from it. Bridges are numbered along the chain shown (N, C = ends). Where no end group is shown, it is not given here. [ ]: non-standard residue; d: D form. Phe(Nα-CH2CH2CO) = O=C([C@H](Cc1ccccc1)N(CCC(=O)[*:3])[*:1])[*:2]; N(2-aminoethyl)Phe = O=C([C@H](Cc1ccccc1)N(CCN[*:3])[*:1])[*:2]; N(2-mercaptoethyl)Gly = O=C(CN(CCS[*:3])[*:1])[*:2]; N(CH2CH2CO)Gly = O=C(CN(CCC(=O)[*:3])[*:1])[*:2]; 2Nal = N[C@@H](Cc1ccc2ccccc2c1)C(=O)O; d2Nal = N[C@H](Cc1ccc2ccccc2c1)C(=O)O; Phe(C1) = not defined here; Phe(C2) = not defined here; Phe(C3) = not defined here

What was measured:
SSTR-2 = biological target: T1, SSTR-2 (Homo sapiens, UniProt P30874); test: Inhibition of 125I-Tyr11-SRIF binding to membrane preparations expressing SSTR-2
T1 construct: expressed in transfected cells
T1 sequence (P30874 whole entry): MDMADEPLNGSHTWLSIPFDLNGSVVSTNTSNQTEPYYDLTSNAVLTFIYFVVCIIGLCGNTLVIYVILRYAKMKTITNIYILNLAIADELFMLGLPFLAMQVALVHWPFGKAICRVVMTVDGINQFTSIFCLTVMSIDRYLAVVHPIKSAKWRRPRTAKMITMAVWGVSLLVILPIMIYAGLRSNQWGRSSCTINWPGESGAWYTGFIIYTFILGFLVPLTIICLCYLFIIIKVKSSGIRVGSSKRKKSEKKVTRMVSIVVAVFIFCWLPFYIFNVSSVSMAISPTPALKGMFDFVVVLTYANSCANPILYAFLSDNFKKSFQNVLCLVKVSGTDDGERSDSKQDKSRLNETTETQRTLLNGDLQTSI
Method: (§1) The receptor preparations used for these tests were either from the cloned human receptors selectively and stably expressed in Chinese Hamster Ovary (CHO) cells or from cell lines naturally expressing the SSTRs. […] The binding reactions were filtered, the filters were washed and the bound radioactivity was counted in gamma counter. Non specific binding was defined as the radioactivity remaining bound in the presence of 1 μM unlabeled SRIF-14.
(§2) In order to validate positive signals of the binding tests, and to eliminate non-specific signals, samples of irrelevant peptides, such as GnRH, that were synthesized and handled using the same procedures, were tested in the same assays as negative control samples. These samples had no binding activity in any of the assays. Results are shown below in Tables 5 and 6 and FIG. 1.

[1] = cited from earlier work
[2] = In vitro biostability in renal homogenate (HPLC); settings: kidney or brush border membranes
Method: The assay was based on HPLC determination of peptide degradation as a function of time in renal homogenate at 37° C.

SSTR-5 = biological target: T2, SSTR-5 (Homo sapiens, UniProt P35346); test: Inhibition of 125I-Tyr11-SRIF binding to membrane preparations expressing SSTR-5; settings: for IC50: Table 15, read-out: IC50 (nM) for SST-R 5
T2 construct: expressed in transfected cells
T2 sequence (P35346 whole entry): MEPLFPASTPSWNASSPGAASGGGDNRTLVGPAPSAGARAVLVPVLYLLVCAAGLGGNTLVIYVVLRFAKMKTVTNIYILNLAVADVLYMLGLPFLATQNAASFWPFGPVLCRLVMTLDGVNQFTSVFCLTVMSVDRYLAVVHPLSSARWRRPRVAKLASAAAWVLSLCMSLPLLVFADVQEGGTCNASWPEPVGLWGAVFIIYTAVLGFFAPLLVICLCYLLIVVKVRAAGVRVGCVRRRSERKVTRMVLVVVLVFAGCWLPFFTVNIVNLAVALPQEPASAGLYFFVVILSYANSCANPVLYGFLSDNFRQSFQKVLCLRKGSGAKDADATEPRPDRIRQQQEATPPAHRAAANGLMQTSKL
Method: as §1, §2

SSTR-3 = biological target: T3, SSTR-3 (Homo sapiens, UniProt P32745); test: Inhibition of 125I-Tyr11-SRIF binding to membrane preparations expressing SSTR-3; settings: for IC50: Table 15, read-out: IC50 (nM) for SST-R 3
T3 construct: expressed in transfected cells
T3 sequence (P32745 whole entry): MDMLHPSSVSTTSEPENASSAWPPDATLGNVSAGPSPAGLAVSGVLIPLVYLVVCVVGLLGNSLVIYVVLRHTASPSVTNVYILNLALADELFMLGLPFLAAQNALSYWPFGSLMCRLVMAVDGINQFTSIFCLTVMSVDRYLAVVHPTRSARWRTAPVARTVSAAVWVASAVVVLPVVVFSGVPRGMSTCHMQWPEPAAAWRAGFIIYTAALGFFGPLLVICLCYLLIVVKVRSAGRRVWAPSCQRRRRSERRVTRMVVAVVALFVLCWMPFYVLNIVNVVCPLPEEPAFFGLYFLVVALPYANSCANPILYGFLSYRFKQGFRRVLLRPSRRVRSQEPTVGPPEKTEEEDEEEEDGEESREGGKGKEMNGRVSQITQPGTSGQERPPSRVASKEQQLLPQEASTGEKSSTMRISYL
Method: as §1, with “The somatostatin analogs were tested for their potency in inhibition of the binding of ^125I-Tyr^11-SRIF (based on the method described by Raynor et. al., Molecular Pharmacology, 1993, 43, 838-844) to membrane preparations expressing the transmembranal somatostatin receptors (SSTR-1, 2, 3, 4 or 5). The receptor” for “The receptor”
as §2

[3] = system: somatostatin receptors (SSTR-1, 2, 3, 4 or 5); test: Somatostatin receptor subtype selectivity of binding; parameters: species or system human; settings: in words
Method: The somatostatin analogs were tested for their potency in inhibition of the binding of ^125I-Tyr^11-SRIF (based on the method described by Raynor et. al., Molecular Pharmacology, 1993, 43, 838-844) to membrane preparations expressing the transmembranal somatostatin receptors (SSTR-1, 2, 3, 4 or 5). The receptor preparations used for these tests were either from the cloned human receptors selectively and stably expressed in Chinese Hamster Ovary (CHO) cells or from cell lines naturally expressing the SSTRs. Typically, cell membranes were homogenated in Tris buffer in the presence of protease inhibitors and incubated for 30-40 minutes with ^125I-Tyr^11-SRIF with different concentrations of the tested sample. The binding reactions were filtered, the filters were washed and the bound radioactivity was counted in gamma counter. Non specific binding was defined as the radioactivity remaining bound in the presence of 1 μM unlabeled SRIF-14.
as §2

[4] = biological target: T4, cloned human somatostatin receptor 3 (human, UniProt P32745 1-418); test: 125I-Tyr11-SRIF displacement, membranes, cloned human SST-R3
T4 construct: whole, on cells; Tested as cell membrane preparations; also called SSTR-3; SSTR3
T4 sequence (P32745 whole entry): as above
Description: (§3) The receptor preparations used for these tests were either from the cloned human receptors selectively and stably expressed in Chinese Hamster Ovary (CHO) cells or from cell lines naturally expressing the SSTRs. […] The binding reactions were filtered, the filters were washed and the bound radioactivity was counted in gamma counter.

[5] = biological target: T4, cloned human somatostatin receptor 3; test: inhibition of SRIF binding, cloned human SSTR-3; head says nM, values evidently molar
Description: as §3

[6] = biological target: T5, cloned human somatostatin receptor 2 (human, UniProt P30874 1-369); test: inhibition of SRIF binding, cloned human SSTR-2; head says nM, values evidently molar
T5 construct: whole, on cells; Tested as cell membrane preparations; also called SSTR-2; SSTR2
T5 sequence (P30874 whole entry): as the sequence (P30874 whole entry) above
Description: as §3

[7] = biological target: T6, cloned human somatostatin receptor 5 (human, UniProt P35346 1-364); test: inhibition of SRIF binding, cloned human SSTR-5; head says nM, values evidently molar
T6 construct: whole, on cells; Tested as cell membrane preparations; also called SSTR-5; SSTR5
T6 sequence (P35346 whole entry): as the sequence (P35346 whole entry) above
Description: as §3

[8] = biological target: T7, cloned human somatostatin receptor 4 (human, UniProt P31391 1-388); test: 125I-Tyr11-SRIF displacement, cloned human SSTR-R4
T7 construct: whole, on cells; Tested as cell membrane preparations; also called SSTR-4; SSTR-R4
T7 sequence (P31391 whole entry): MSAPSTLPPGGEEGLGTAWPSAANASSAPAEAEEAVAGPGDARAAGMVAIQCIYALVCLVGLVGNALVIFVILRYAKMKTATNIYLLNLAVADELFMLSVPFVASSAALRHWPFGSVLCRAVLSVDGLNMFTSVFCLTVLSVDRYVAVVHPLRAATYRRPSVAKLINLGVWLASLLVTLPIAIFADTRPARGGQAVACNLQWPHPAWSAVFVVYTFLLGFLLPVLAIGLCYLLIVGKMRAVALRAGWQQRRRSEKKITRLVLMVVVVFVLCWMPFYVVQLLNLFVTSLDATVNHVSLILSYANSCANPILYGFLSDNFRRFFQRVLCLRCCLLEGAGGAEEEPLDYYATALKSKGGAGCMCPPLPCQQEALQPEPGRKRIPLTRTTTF

[9] = Table 15, read-out: IC50 (nM) for SST-R 2
[10] = IV, from Sandostatin overview, Sandoz 1992
[11] = SC, from Sandostatin overview, Sandoz 1992

C[C@@H](O)[C@@H]1NC(=O)[C@H](CCCCN)NC(=O)[C@@H](Cc2c[nH]c3ccccc23)NC(=O)[C@H](Cc2c[nH]c3ccccc23)NC(=O)[C@H](Cc2ccccc2)NC(=O)[C@@H](NC(=O)[C@H](N)Cc2ccccc2)CSSCCN(CC(N)=O)C(=O)[C@H](Cc2ccccc2)NC1=O [PTR 3207, (D)Phe-Cys*-Phe-Trp-(D)Trp-Lys-Thr-Phe-Gly(S2)*-NH2]
IC50 (SSTR-2; [9]): 1 to 12 nM

C[C@@H](O)[C@@H]1NC(=O)[C@H](CCCCN)NC(=O)[C@@H](Cc2c[nH]c3ccccc23)NC(=O)[C@H](Cc2ccccc2)NC(=O)[C@@H](NC(=O)[C@H](N)Cc2ccccc2)CSSC[C@@H](C(=O)N[C@H](CO)[C@@H](C)O)NC1=O [Octreotide]
Clearance [1, 10]: 1.06 L/h/kg
T½β (min) circulating half life [1, 10]: 49 min
Vss (ml/kg) Volume of distribution [1, 10]: 602 mL/kg
circulation half-life ([1]; Octreotide): 40 min
Clearance [1, 11]: 1.03 L/h/kg
F (%) Bioavailability [1, 11]: 103%
T½β (min) circulating half life [1, 11]: 40 min
remaining at 1 h [2]: 100%
remaining at 3 h [2]: 100%
remaining at 24 h [2]: 100%

C[C@@H](O)[C@@H]1NC(=O)[C@H](CCCCN)NC(=O)[C@@H](Cc2c[nH]c3ccccc23)NC(=O)[C@H](Cc2c[nH]c3ccccc23)NC(=O)[C@H](Cc2ccccc2)NC(=O)CNCCSSCCN(CC(N)=O)C(=O)[C@H](Cc2ccccc2)NC1=O [PTR 3213, Gly(S2)*-Phe-Trp-(D)Trp-Lys-Thr-Phe-Gly(S2)*-NH2]
IC50 (SSTR-2; [9]): 4 nM
IC50 (SSTR-5): 12 nM

C[C@@H](O)[C@@H]1NC(=O)[C@H](CCCCN)NC(=O)[C@@H](Cc2c[nH]c3ccccc23)NC(=O)[C@H](Cc2c[nH]c3ccccc23)NC(=O)[C@H](Cc2ccccc2)NC(=O)CSSCCN(CC(N)=O)C(=O)[C@H](Cc2ccccc2)NC1=O [PTR 3211, Mercapto-acetic-acid(*)-Phe-Trp-(D)Trp-Lys-Thr-Phe-Gly(S2)*-NH2]
IC50 (SSTR-2; [9]): 37 nM
IC50 (SSTR-3): 12 to 37 nM

C[C@@H](O)[C@@H]1NC(=O)[C@H](CCCCN)NC(=O)[C@@H](Cc2c[nH]c3ccccc23)NC(=O)[C@H](Cc2c[nH]c3ccccc23)NC(=O)[C@H](Cc2ccccc2)NC(=O)[C@@H](N)CSSCCN(CC(N)=O)C(=O)[C@H](Cc2ccccc2)NC1=O [PTR 3197, Cys*-Phe-Trp-(D)Trp-Lys-Thr-Phe-Gly(S2)*-NH2] (H-CFW[dW]KTF[N(2-mercaptoethyl)Gly]-NH2; disulfide 1-8; N-terminus assumed)
IC50 (SSTR-2; [9]): 4 nM
IC50 (SSTR-5): 1 nM

NCCCC[C@H]1NC(=O)[C@@H](Cc2c[nH]c3ccccc23)NC(=O)[C@H](Cc2ccccc2)NC(=O)[C@H](Cc2ccccc2)NC(=O)[C@H](Cc2ccccc2)NC(=O)CCN([C@@H](Cc2ccccc2)C(N)=O)C1=O [PTR 3171, Phe*-Phe-Phe-(D)Trp-(D)Lys-Phe(C2)-X] (FFF[dW][dK][Phe(Nα-CH2CH2CO)]-NH2; lactam N-6)
remaining at 1 h [2]: 100%
remaining at 3 h [2]: 100%
remaining at 24 h [2]: 100%
inhibition at 1 µM (SSTR-5; SST-R5, 10^−6M, read-out: Percent inhibition of SRIF-14 binding): 60%
inhibition at 0.1 µM (SSTR-5; SST-R5, 10^−7M, read-out: Percent inhibition of SRIF-14 binding): 10%
inhibition at 0.01 µM (SSTR-5; SST-R5, 10^−8M, read-out: Percent inhibition of SRIF-14 binding): 18%
inhibition at 1 µM (SSTR-3; SST-R3, 10^−6M, read-out: Percent inhibition of SRIF-14 binding): 87%
inhibition at 0.1 µM (SSTR-3; SST-R3, 10^−7M, read-out: Percent inhibition of SRIF-14 binding): 40%
inhibition at 0.01 µM (SSTR-3; SST-R3, 10^−8M, read-out: Percent inhibition of SRIF-14 binding): 12%

Phe(N2)-Tyr-(D)2Nal-Lys-Val-Gly(C2)-Thr-X ([N(2-aminoethyl)Phe]Y[d2Nal]KV[N(CH2CH2CO)Gly]T; lactam 1-6; not fully specified; printed as Phe(N2)-Tyr-(D)2Nal-Lys-Val-Gly(C2)-Thr-X) [PTR 3209]
somatostatin receptor subtype selectivity [3]: selective for the type 1 receptor

C[C@@H](O)[C@@H]1NC(=O)[C@H](CCCCN)NC(=O)[C@@H](Cc2c[nH]c3ccccc23)NC(=O)[C@H](Cc2c[nH]c3ccccc23)NC(=O)[C@H](Cc2ccccc2)NC(=O)CCSSCCN(CC(N)=O)C(=O)[C@H](Cc2ccccc2)NC1=O [PTR 3217, 3-Thiopropanoic-acid*-Phe-Trp-(D)Trp-Lys-Thr-Phe-Gly(S2)*-NH2]
IC50 (SSTR-2; [9]): 37 nM
IC50 (SSTR-3): 100 nM

C[C@@H](O)[C@@H]1NC(=O)[C@H](CCCCN)NC(=O)[C@@H](Cc2c[nH]c3ccccc23)NC(=O)[C@H](Cc2c[nH]c3ccccc23)NC(=O)[C@H](Cc2ccccc2)NC(=O)CN(C(=O)[C@H](N)Cc2ccccc2)CCSSCCN(CC(N)=O)C(=O)[C@H](Cc2ccccc2)NC1=O [PTR 3219, (D)Phe-Gly(S2)*-Phe-Trp-(D)Trp-Lys-Thr-Phe-Gly(S2)*-NH2]
IC50 (SSTR-2): 4 nM

FFF[dW][dK][Phe(C2)] (lactam N-6; reading uncertain, Backbone-to-end cyclized hexapeptide) [PTR 3171]
percent inhibition of SRIF-14 binding at 10^-6M [4]: 87%
percent inhibition of SRIF-14 binding at 10^-7M [4]: 40%
percent inhibition of SRIF-14 binding at 10^-8M [4]: 12%

[N(2-aminoethyl)Phe]F[dW]KT[2Nal][N(CH2CH2CO)Gly] (lactam 1-7; not fully specified, Backbone cyclized heptapeptide) [PTR 3203]
IC50 [5]: 0.01 µM
IC50 [6]: 0.1 µM
IC50 [7]: 0.01 µM

[N(2-aminoethyl)Phe]Y[dW]KS[2Nal][N(CH2CH2CO)Gly] (lactam 1-7; not fully specified, Backbone cyclized heptapeptide) [PTR 3201]
IC50 [5]: 0.01 µM
IC50 [6]: 0.1 µM
IC50 [7]: 0.001 µM

B1: PTR 3113 (peptide)
peptide: [Phe(C1)]FF[dW]K[N(2-aminoethyl)Phe]
modifications: lactam 1-6; reading uncertain
notes: Backbone cyclized hexapeptide somatostatin analog
percent inhibition of SRIF-14 binding at 10^-6M [4]: 94%
percent inhibition of SRIF-14 binding at 10^-7M [4]: 65%
percent inhibition of SRIF-14 binding at 10^-8M [4]: 16%

[Phe(C3)]CF[dW]KTC[Phe(N3)]-NH2 (lactam 1-8; disulfide 2-7; reading uncertain, Bicyclic analog) [PTR 3205]
IC50 [6]: 0.001 µM

B2: PTR 3173 (peptide)
peptide: XFWWKTFG
modifications: GABA at 1 (written X); (D)Trp at 4; Gly(C3) building unit at 8 bridged by an amide to the N terminus (GABA); C-terminal amide
notes: Backbone-to-end cyclized octapeptide
percent inhibition of SRIF-14 binding at 10^-6 M [8]: 5%
percent inhibition of SRIF-14 binding at 10^-7M [8]: 5%
percent inhibition of SRIF-14 binding at 10^-8M [8]: 0%
percent inhibition of SRIF-14 binding at 10^-9 M [8]: 0%
percent inhibition of SRIF-14 binding at 10^-10 M [8]: 0%
percent inhibition of SRIF-14 binding at 10^-11 M [8]: 0%
IC50 [5]: 0.1 µM
IC50 [6]: 0.001 µM
IC50 [7]: 0.001 µM
